Patent US20060241178A1, “Compositions and methods for treating lung cancer” (priority 2002, published 2006)
Like-named read-outs stand apart in the source and are kept apart here.

How the values were obtained:
[1] = tested on: A549 cells; experiment: Flow cytometry cell cycle analysis / survival of A549 cells; type: cell-based, human
Description: (§1) Cell Lines: The human lung adenocarcinoma cell line A549 was obtained from the American Type Culture Collection (ATCC) (Bethesda, Md.). […] Cells were grown at 37° C. with 5% CO2.
(§2) Reagents: The PEITC was obtained from Aldrich (Milwaukee, Wis.) and its N-acetylcysteine conjugate was synthesized in house by the Organic Synthesis Facility using the method described previously (Kassahun et al., Chem Res Toxicol 1997, 10(11):1228-33). Unless specified otherwise, the A549 cells were treated with 10 or 25 μM of PEITC-NAC. TPA (12-O-tetradecanoylphorbol-13-acetate) was purchased from Sigma (St. Louis, Mo.).
Cell cycle analysis: A549 cells were harvested following 16 and 24 h treatment with various concentrations of PEITC-NAC by fixation in 70% ethanol. Cellular DNA was determined following staining with 1 μg/ml of 4,6-diamidino-2-ephynylindole (DAPI, Molecular Probes, Eugene, Oreg.) dissolved in PBS. Cellular blue fluorescence was measured using the Elite ESP flow cytometer/cell sorter (Coulter, Miami, Fla.) following excitation with a Ni/Cad UV light emitting laser. The data were collected and DNA histograms were deconvoluted using Multicycle software (Phoenix Flow Systems, San Diego, Calif.).

[2] = tested on: A549 cells; experiment: Apoptosis in A549 cells treated with TPA, PEITC-NAC or TPA plus PEITC-NAC (photography, DAPI staining); type: cell-based, human; conditions: TPA 100 nM 12 h prior, then PEITC-NAC 24 h
Text: Assay for single cell DNA strand breaks: A549 cells treated with or without TPA, PEITC-NAC or TPA plus PEITC-NAC were collected at the times specified in the text, cytocentrifuged and stained with 4′-6′diamidino-2-phenylindole (DAPI). The photographs were taken using an Olympus AX 70 microscope (Melville, N.Y.) with fluorescence and SPOT RT Slider digital image system (Diagnostic Instruments Inc., Sterling Heights, Mich.). Arrows indicated the typical apoptotic features of DNA strand breakage and nuclear fragmentation.
TPA (100 nM) was added to A549 cells 12 h prior to addition of PEITC-NAC, which was added 24 h before photography of cells, protein isolation, or DAPI staining. […] These cells were treated identically, but were stained with the DNA fluorochrome DAPI.

[3] = tested on: A549/control-vector cells; experiment: Apoptosis in A549/control-vector transfectants (morphology, DNA fragmentation, annexin V, PARP Western blot); type: cell-based, human; conditions: 25 μM
[4] = tested on: A549/c-jun cells; experiment: Apoptosis in A549/c-jun transfectants (morphology, DNA fragmentation, annexin V, PARP Western blot); type: cell-based, human; conditions: 25 μM
[5] = Stability of conjugates in AIN-76A diet (methanol extraction, HPLC); type: physicochemical; conditions: stored at 4° C. under nitrogen
Description: The ITC conjugates were incorporated (15 μmol/g diet) into AIN-76A diets (5% corn oil) by mixing with dextrose prior to diet preparation. […] After mixing with dextrose, the solvent was removed using a rotary evaporator and further dried using a vacuum pump (2-3 h). Diets were prepared in 1-2 kg batches, and were stored at 4° C. in a container purged with nitrogen. […] Stability was determined by extraction of 0.5 g portions of the diet with 2.5 ml methanol (2×). The methanol extracts were combined and a 1 ml aliquot was filtered using a 0.47 μm syringe filter.

[6] = tested on: AP-1 binding activity in A549 cells; experiment: EMSA of AP-1 binding activity in A549 cells; type: cell-based, human
Description: as §1, §2
Electrophoretic Mobility Shift Assay (EMSA): Double-stranded oligonucleotides containing the consensus-binding site for AP-1 were purchased commercially (Santa Cruz Biotech). The oligos were labeled with γ-^32P-ATP (6000 Ci/mmol, Armeshem Pharmacia Biotech. Inc Piscataway, N.J.) using polynucleotide kinase (Promega, Madison, Wis.) according to standard procedures. The labeled DNA was incubated with 5 μg of total proteins (as specified in the Results section) for 10 min at room temperature, in the presence of 1 μg of poly d(I)-d(C) oligomer (Roche Molecular Biochemicals, Indianapolis, Ind.) and DNA-binding buffer as described previously (Yang et al., Cell Growth Differ 1993, 4(7):595-602). The complexes were then separated on a 7.5% polyacrylamide gel and autoradiographed.
Proteins Isolation: Cells were incubated in a 37° C. with 5% CO2, followed by mock or treatments specified in the results section. Total proteins were then isolated using RIPA buffer. The protease inhibitors aprotinin (1 μg/ml), leupeptin (1 μg/ml), pepstatin (1 μg/ml), phenylmethylsulfonyl fluoride (0.1 mM) and the phosphatase inhibitor Na3VO4 (1 mM), NaF (1 mM) were added to all buffers. The protein concentrations were determined using the Coomassie Plus Protein Assay Reagent (Pierce, Rockford, Ill.), and aliquots of the proteins were stored at −80° C.

[7] = tested on: NNK/B(a)P-induced lung adenomas and adenocarcinomas; conditions: for Adenocarcinoma Incidence (%) / Adenocarcinoma Multiplicity mean ± SD / Adenoma Incidence (%) / Adenoma Multiplicity mean ± SD: preliminary
Description: The test compounds were given in the diet on week 21 after beginning of a weekly dose of a mixture of NNK/B(a)P: 3 μmol each (621 μg NNK and 756 μg B(a)P) in 0.1 ml cottonseed oil for eight weeks (a total of 8 doses) (groups 1 to 10); only vehicle (cottonseed oil) for groups 11 to 15. Animals were then given experimental diet for 20 weeks until week 40. Four mice in groups 1, 2, 4, 6, 8, and 10 (see Table 1) were sacrificed on weeks 20, 38, and 40. The bioassay was terminated on week 52. If sufficient numbers of tumors were developed in mice killed on week 40, the bioassay was terminated at week 40. Tumors (adenomas and carcinomas) were quantified by multiplicity and incidence. At sacrifice, livers and lungs were harvested and the tissues rinsed in autoclaved PBS, stored in labeled foil, and snap frozen in liquid nitrogen. These tissues both tumorous and non-tumorous were processed by histology for biomarker studies (TUNEL, PCNA,p53, […] kinases, etc.). Lungs were examined by histology at termination (52 week or 40 week) for adenomas and carcinomas).
In this study, the potential protective effects of ITCs and ITC-NACs against progression of lung adenomas to malignant tumors were investigated. Lung tumors were induced in A/J mice with 3 μmol B(a)P plus 3 μmol NNK (gavage once/wk, 8 wks); mice were maintained on AIN-76A semi-purified diets. […] Diets containing PEITC (phenethyl ITC) or SFN (sulforaphane), each at 3 mmol/kg and 1.5 mmol/kg diet; PEITC-NAC or SFN-NAC at 8 mmol/kg and 4 mmol/kg diet; and NAC at 8 mmol/kg diet were then provided to groups of 28 mice (high dose) or 20 mice (low dose) during weeks 20 to 40 after initiation. Four mice in each high dose treatment group were killed during weeks 28 and 40 to monitor tumor incidence and progression; lung tissues were used for molecular studies. Remaining mice were killed at 40 weeks for histopathological examination. […] To assess molecular events occurring during the treatments, lung RNA of mice treated with B(a)P+NNK/control diet and B(a)P+NNK/PEITC-NAC high dose diet was examined using a Mouse Cancer Pathway Finder Gene Array.

[8] = high dose (3 or 8 mmol/kg diet)
[9] = low dose (1.5 or 4 mmol/kg diet)

Compound: CC(=O)N[C@@H](CSC(=S)NCCc1ccccc1)C(=O)O [PEITC-NAC, N-acetylcysteine Conjugate of phenethyl isothiocyanate]
- cells undergoing apoptosis (sub-G1 peak) ([1]; 10 μM for 24 h): 4.5%
- cell survival ([1]; 100 μM, 24 h): no lung cells appear to survive
- incidence of apoptosis in TPA-pretreated cells compared with PEITC-NAC alone [2]: a much higher incidence of apoptosis
- PARP 89 kD cleavage fragment ([3]; 3 h): a very light 89 kD cleavage fragment
- PARP protein ([3]; 24 h): maintained a significant levels of intact PARP protein
- cell survival (morphology, DNA fragmentation) ([3]; 24 h): the majority of control-vector transfectants were still alive
- PARP 89 kD cleavage fragment ([4]; 3 h): the most evident cleavage
- PARP protein ([4]; 24 h): maintained a significant levels of intact PARP protein
- apoptosis compared with control-vector transfected cells ([4]; 24 h): enhanced apoptosis
- stability in diet [5]: stable for at least one month
- earliest appearance of AP-1 activation ([6]; 10 μM): 30 min
- concentration of peak AP-1 binding activity ([6]; 24 h treatment): 10 µM
- lowest concentration stimulating AP-1 activation ([6]; 24 h treatment): 1 µM
- incidence of adenocarcinoma/squamous carcinoma ([7]; 8 mmol/kg diet, initiated control group 60%): 20%
- mean numbers of lung adenomas compared with carcinogen control mice ([7]; at termination): decreases were significant
- Adenocarcinoma Incidence (%) [7, 8]: 5/31 (16.1%)
- Adenocarcinoma Multiplicity mean ± SD [7, 8]: 0.52 ± 1.50
- Adenoma Incidence (%) [7, 8]: 30/31 (96.8%)
- Adenoma Multiplicity mean ± SD ([7]; high dose (PEITC, SFN 3 mmol/kg diet; PEITC-NAC, SFN-NAC, NAC 8 mmol/kg diet)): 8.19 ± 3.99
- Adenocarcinoma Incidence (%) [7, 9]: 4/19 (21.05%)
- Adenocarcinoma Multiplicity mean ± SD [7, 9]: 0.53 ± 1.14
- Adenoma Incidence (%) [7, 9]: 17/19 (89.47%)
- Adenoma Multiplicity mean ± SD ([7]; low dose (PEITC, SFN 1.5 mmol/kg diet; PEITC-NAC, SFN-NAC 4 mmol/kg diet)): 7.58 ± 3.88
- malignant tumor multiplicity ([7]; low dose groups, initiated control group 2.1): 0.9 tumors/mouse
